# Data published in patent US9593108B2, “Compounds and methods for antiviral treatment” (PTC Therapeutics, Inc., priority 2009, dated 2017).
# Test system: HCV replicon RNA (GenBank Accession No. AJ242654)
# Experiment: HCV Replicon Assay (replicon RNA reduction and/or Fluc reporter signal)
# Format: cell-based, Hepatitis C virus
# Conditions: Hepatitis C virus, 72 h, replicon-containing cells cultured with test compound for up to 3 days
# From the text: The lack of reliable and readily accessible cell-culture and small animal models permissive for HCV replication has limited the development of new anti-HCV agents. Self-replicating subgenomic HCV systems, termed HCV replicons, have been described and have been widely used to assess the efficacy of anti-HCV inhibitors (see Blight K J, et al., 2000, Efficient initiation of HCV RNA replication in cell culture. Science 290:1972-1974; Blight K J, et al., 2002, Highly permissive cell lines for subgenomic and genomic hepatitis C virus RNA replication. J Virol 76:13001-13014; Ikeda M, et al., 2002. Selectable subgenomic and genome-length dicistronic RNAs derived from an infectious molecular clone of the HCV-N strain of hepatitis C virus replicate efficiently in cultured Huh7 cells. J Virol 76:2997-3006; Lohmann V, et al., 1999, Replication of subgenomic hepatitis C virus RNAs in a hepatoma cell line. Science 285:110-113; Pietschmann T, et al., 2002, Persistent and transient replication of full-length hepatitis C virus genomes in cell culture. J Virol 76:4008-4021; and, Pietschmann T, et al., 2001, Characterization of cell lines carrying self-replicating hepatitis C virus RNAs. J Virol 75:1252-1264).
# As described in U.S. Pat. No. 6,630,343, HCV inhibitors are analyzed in the bicistronic replicon by quantitating replicon RNA (GenBank Accession No. AJ242654) reduction and/or the Fluc reporter signal. Replicon-containing cells may be cultured with a test compound of the present invention for up to 3 days. Interferon (IFN) is used as a positive control. In general, the replicon IC50 values shown in Table 1 represent IC50 values determined by replicon RNA reduction.
row,Compound,IC50
1,"COc1ccc2c(n1)c(C#N)c(-c1ccc(S(=O)(=O)N[C@@H](C)C(F)(F)F)cn1)n2C1CCC1 [Cpd 20, 6-(3-cyano-1-cyclobutyl-5-methoxy-1H-pyrrolo[3,2-b]pyridin-2-yl)-N-[(2S)-1,1,1-trifluoropropan-2-yl]pyridine-3-sulfonamide]",500 to 2000 nM
2,"COc1cnc2c(c1)c(C#N)c(-c1ccc(S(=O)(=O)N[C@@H](C)C(F)(F)F)cn1)n2C1CCC1 [Cpd 22, 6-(3-cyano-1-cyclobutyl-5-methoxy-1H-pyrrolo[2,3-b]pyridin-2-yl)-N-[(2S)-1,1,1-trifluoropropan-2-yl]pyridine-3-sulfonamide]",500 to 2000 nM
3,"COc1ncc2c(C#N)c(-c3ccc(S(=O)(=O)N[C@@H](C)C(F)(F)F)cn3)n(C3CCC3)c2n1 [Cpd 38, 6-(5-cyano-7-cyclobutyl-2-methoxy-7H-pyrrolo[2,3-d]pyrimidin-6-yl)-N-[(2S)-1,1,1-trifluoropropan-2-yl]pyridine-3-sulfonamide]",< 500 nM
4,"COc1ncc2c(C#N)c(-c3ccc(S(=O)(=O)N[C@H](C)C(F)(F)F)cn3)n(C3CCC3)c2n1 [Cpd 39, 6-(5-cyano-7-cyclobutyl-2-methoxy-7H-pyrrolo[2,3-d]pyrimidin-6-yl)-N-[(2R)-1,1,1-trifluoropropan-2-yl]pyridine-3-sulfonamide]",2000 to 5000 nM
5,"COc1ccc2c(C#N)c(-c3ccc(S(=O)(=O)NC(CF)CF)cc3)n(C3CCC3)c2n1 [Cpd 43, 4-(3-cyano-1-cyclobutyl-6-methoxy-1H-pyrrolo[2,3-b]pyridin-2-yl)-N-(1,3-difluoropropan-2-yl)benzenesulfonamide]",< 500 nM
6,"COc1cnc2c(c1)c(C#N)c(-c1ccc(S(=O)(=O)N[C@H](C)C(F)(F)F)cn1)n2C1CCC1 [Cpd 48, 6-(3-cyano-1-cyclobutyl-5-methoxy-1H-pyrrolo[2,3-b]pyridin-2-yl)-N-[(2R)-1,1,1-trifluoropropan-2-yl]pyridine-3-sulfonamide]",< 500 nM
7,"Cc1ccc2c(C#N)c(-c3ccc(S(=O)(=O)N[C@H](C)C(F)(F)F)cc3)n(C3CCC3)c2n1 [Cpd 91, 4-(3-cyano-1-cyclobutyl-6-methyl-1H-pyrrolo[2,3-b]pyridin-2-yl)-N-[(2R)-1,1,1-trifluoropropan-2-yl]benzenesulfonamide]",< 500 nM
8,"Cc1ccc2c(C#N)c(-c3ccc(S(=O)(=O)N[C@@H](C)C(F)(F)F)cn3)n(C3CCC3)c2n1 [Cpd 92, 6-(3-cyano-1-cyclobutyl-6-methyl-1H-pyrrolo[2,3-b]pyridin-2-yl)-N-[(2S)-1,1,1-trifluoropropan-2-yl]pyridine-3-sulfonamide]",< 500 nM
9,"Cc1ccc2c(C#N)c(-c3ccc(S(=O)(=O)N[C@H](C)C(F)(F)F)cn3)n(C3CCC3)c2n1 [Cpd 93, 6-(3-cyano-1-cyclobutyl-6-methyl-1H-pyrrolo[2,3-b]pyridin-2-yl)-N-[(2R)-1,1,1-trifluoropropan-2-yl]pyridine-3-sulfonamide]",< 500 nM
10,"Cc1ccc2c(C#N)c(-c3ncc(S(=O)(=O)NC(C)C)cn3)n(C3CCC3)c2n1 [Cpd 95, 2-(3-cyano-1-cyclobutyl-6-methyl-1H-pyrrolo[2,3-b]pyridin-2-yl)-N-(propan-2-yl)pyrimidine-5-sulfonamide]",500 to 2000 nM
11,"C[C@@H](NS(=O)(=O)c1cnc(-c2c(C#N)c3cc(C4CC4)cnc3n2C2CCC2)nc1)C(F)(F)F [Cpd 120, 2-(3-cyano-1-cyclobutyl-5-cyclopropyl-1H-pyrrolo[2,3-b]pyridin-2-yl)-N-[(2R)-1,1,1-trifluoropropan-2-yl]pyrimidine-5-sulfonamide]",< 500 nM
12,"N#Cc1c(-c2ccc(S(=O)(=O)NC3(C(F)(F)F)CC3)cc2)n(C2CCC2)c2ncc(C3CC3)cc12 [Cpd 123, 4-(3-cyano-1-cyclobutyl-5-cyclopropyl-1H-pyrrolo[2,3-b]pyridin-2-yl)-N-[1-(trifluoromethyl)cyclopropyl]benzenesulfonamide]",< 500 nM
13,"CC(C)(C)NS(=O)(=O)c1ccc(-c2c(C#N)c3cc(C4CC4)cnc3n2C2CCC2)nc1 [Cpd 126, N-tert-butyl-6-(3-cyano-1-cyclobutyl-5-cyclopropyl-1H-pyrrolo[2,3-b]pyridin-2-yl)pyridine-3-sulfonamide]",< 500 nM
14,"N#Cc1c(-c2ccc(S(=O)(=O)NC(CF)CF)cn2)n(C2CCC2)c2ncc(C3CC3)cc12 [Cpd 131, 6-(3-cyano-1-cyclobutyl-5-cyclopropyl-1H-pyrrolo[2,3-b]pyridin-2-yl)-N-(1,3-difluoropropan-2-yl)pyridine-3-sulfonamide]",< 500 nM
15,"CC(C)NS(=O)(=O)c1ccc(-c2c(C#N)c3cc(C4CC4)cnc3n2C2CCC2)cn1 [Cpd 135, 5-(3-cyano-1-cyclobutyl-5-cyclopropyl-1H-pyrrolo[2,3-b]pyridin-2-yl)-N-(propan-2-yl)pyridine-2-sulfonamide]",< 500 nM
16,"Cc1ccc2c(C#N)c(-c3ccc(S(=O)(=O)NC(C)(C)C(F)(F)F)cc3)n(C3CCC3)c2n1 [Cpd 139, 4-(3-cyano-1-cyclobutyl-6-methyl-1H-pyrrolo[2,3-b]pyridin-2-yl)-N-(1,1,1-trifluoro-2-methylpropan-2-yl)benzenesulfonamide]",500 to 2000 nM
17,"C[C@H](NS(=O)(=O)c1ccc(-c2c(C#N)c3ccc(C4CC4)nc3n2C2CCC2)cc1)C(F)(F)F [Cpd 149, 4-(3-cyano-1-cyclobutyl-6-cyclopropyl-1H-pyrrolo[2,3-b]pyridin-2-yl)-N-[(2S)-1,1,1-trifluoropropan-2-yl]benzenesulfonamide]",< 500 nM
18,"C[C@@H](NS(=O)(=O)c1ccc(-c2c(C#N)c3ccc(C4CC4)nc3n2C2CCC2)cc1)C(F)(F)F [Cpd 150, 4-(3-cyano-1-cyclobutyl-6-cyclopropyl-1H-pyrrolo[2,3-b]pyridin-2-yl)-N-[(2R)-1,1,1-trifluoropropan-2-yl]benzenesulfonamide]",< 500 nM
19,"C[C@H](NS(=O)(=O)c1cnc(-c2c(C#N)c3ccc(C4CC4)nc3n2C2CCC2)nc1)C(F)(F)F [Cpd 153, 2-(3-cyano-1-cyclobutyl-6-cyclopropyl-1H-pyrrolo[2,3-b]pyridin-2-yl)-N-[(2S)-1,1,1-trifluoropropan-2-yl]pyrimidine-5-sulfonamide]",< 500 nM
20,"CCc1cnc2c(c1)c(C#N)c(-c1ccc(S(=O)(=O)N[C@@H](C)C(F)(F)F)cn1)n2C1CCC1 [Cpd 157, 6-(3-cyano-1-cyclobutyl-5-ethyl-1H-pyrrolo[2,3-b]pyridin-2-yl)-N-[(2S)-1,1,1-trifluoropropan-2-yl]pyridine-3-sulfonamide]",< 500 nM
21,"CCc1cnc2c(c1)c(C#N)c(-c1ccc(S(=O)(=O)N[C@H](C)C(F)(F)F)cn1)n2C1CCC1 [Cpd 158, 6-(3-cyano-1-cyclobutyl-5-ethyl-1H-pyrrolo[2,3-b]pyridin-2-yl)-N-[(2R)-1,1,1-trifluoropropan-2-yl]pyridine-3-sulfonamide]",< 500 nM
22,"CCc1cnc2c(c1)c(C#N)c(-c1ncc(S(=O)(=O)N[C@@H](C)C(F)(F)F)cn1)n2C1CCC1 [Cpd 159, 2-(3-cyano-1-cyclobutyl-5-ethyl-1H-pyrrolo[2,3-b]pyridin-2-yl)-N-[(2S)-1,1,1-trifluoropropan-2-yl]pyrimidine-5-sulfonamide]",< 500 nM
23,"CCc1cnc2c(c1)c(C#N)c(-c1ncc(S(=O)(=O)N[C@H](C)C(F)(F)F)cn1)n2C1CCC1 [Cpd 160, 2-(3-cyano-1-cyclobutyl-5-ethyl-1H-pyrrolo[2,3-b]pyridin-2-yl)-N-[(2R)-1,1,1-trifluoropropan-2-yl]pyrimidine-5-sulfonamide]",< 500 nM
24,"CCc1cnc2c(c1)c(C#N)c(-c1ccc(S(=O)(=O)NC(C)(C)C)cn1)n2C1CCC1 [Cpd 186, N-tert-butyl-6-(3-cyano-1-cyclobutyl-5-ethyl-1H-pyrrolo[2,3-b]pyridin-2-yl)pyridine-3-sulfonamide]",< 500 nM
25,"CCc1cnc2c(c1)c(C#N)c(-c1ccc(S(=O)(=O)NC3(C)CC3)cn1)n2C1CCC1 [Cpd 188, 6-(3-cyano-1-cyclobutyl-5-ethyl-1H-pyrrolo[2,3-b]pyridin-2-yl)-N-(1-methylcyclopropyl)pyridine-3-sulfonamide]",< 500 nM
26,"CCc1cnc2c(c1)c(C#N)c(-c1ncc(S(=O)(=O)NC3(C)CC3)cn1)n2C1CCC1 [Cpd 189, 2-(3-cyano-1-cyclobutyl-5-ethyl-1H-pyrrolo[2,3-b]pyridin-2-yl)-N-(1-methylcyclopropyl)pyrimidine-5-sulfonamide]",< 500 nM
27,"CCc1cnc2c(c1)c(C#N)c(-c1ncc(S(=O)(=O)NC(CF)CF)cn1)n2C1CCC1 [Cpd 192, 2-(3-cyano-1-cyclobutyl-5-ethyl-1H-pyrrolo[2,3-b]pyridin-2-yl)-N-(1,3-difluoropropan-2-yl)pyrimidine-5-sulfonamide]",< 500 nM
28,"CCc1cnc2c(c1)c(C#N)c(-c1ccc(S(=O)(=O)NC3CC3)cn1)n2C1CCC1 [Cpd 193, 6-(3-cyano-1-cyclobutyl-5-ethyl-1H-pyrrolo[2,3-b]pyridin-2-yl)-N-cyclopropylpyridine-3-sulfonamide]",< 500 nM

# Same assay, conditions: replicon-containing cells cultured with test compound for up to 3 days
row,Compound,IC50
1,"6-(3,6-dicyano-1-cyclobutyl-1H-pyrrolo[2,3-b]pyridin-2-yl)-N-[(2S)-1,1,1-trifluoropropan-2-yl]pyridine-3-sulfonamide [Cpd 241]",< 500 nM
